# In ChEMBL document CHEMBL1201862, “PubChem BioAssay data set” (2004):
# Activity calls are given as the source filed them.
# Experiments:
# [1] = Vero cell cytotoxicity, dose response, cytotoxicity control for Vif-APOBEC3G degradation inhibitor project, Vero cells (AID 1117358); type: functional; conditions: Human immunodeficiency virus 1, Vero
# [2] = growth suppression of beta-catenin-knockout colon cells, dose response, cell-based, HCT116, human colon tumor (AID 1045); type: functional;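 also: HCT116 colon tumor cells with beta catenin knocked out; cells exposed to compound for 60 hours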
# [3] = growth suppression of PTEN-null colon cells, dose response, cell-based, HCT116 PTEN knockout (AID 1047); type: functional;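 also: HCT116 colon tumor cells with PTEN knocked out; cells exposed to compound for 60 hours before readout; potency for loss of cell viability measured by luminescence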
# [4] = Luminescence Cell-Based Dose Retest to Confirm Inhibitors of Cancer Stem Cells. [Related pubchem assays (depositor defined):AID2717, AID2721]; type: functional; conditions: Homo sapiens
# INS1 = assay: beta cell apoptosis inhibitors, cytokine rescue, dose response, luminescence, retest (AID 449756); type: functional, cell-based; conditions: Rattus norvegicus;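 also: cell death triggered by IL-1 beta plus TNF-alpha plus IFN-gamma mixture; protective hits raise ATP signal compared with cytokine alone wells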
# Streptokinase A = molecular target: T1, Streptokinase A (Streptococcus pyogenes serotype M1, UniProt P10520); assay: S. pyogenes streptokinase expression inhibitors, potency, dose response, plasminogen activation absorbance, OD405 (AID 1914); type: functional, Streptococcus pyogenes M1 GAS;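 also: secreted streptokinase activity via plasminogen activation per viability signal from cell pellet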
# T1 sequence (P10520 whole entry): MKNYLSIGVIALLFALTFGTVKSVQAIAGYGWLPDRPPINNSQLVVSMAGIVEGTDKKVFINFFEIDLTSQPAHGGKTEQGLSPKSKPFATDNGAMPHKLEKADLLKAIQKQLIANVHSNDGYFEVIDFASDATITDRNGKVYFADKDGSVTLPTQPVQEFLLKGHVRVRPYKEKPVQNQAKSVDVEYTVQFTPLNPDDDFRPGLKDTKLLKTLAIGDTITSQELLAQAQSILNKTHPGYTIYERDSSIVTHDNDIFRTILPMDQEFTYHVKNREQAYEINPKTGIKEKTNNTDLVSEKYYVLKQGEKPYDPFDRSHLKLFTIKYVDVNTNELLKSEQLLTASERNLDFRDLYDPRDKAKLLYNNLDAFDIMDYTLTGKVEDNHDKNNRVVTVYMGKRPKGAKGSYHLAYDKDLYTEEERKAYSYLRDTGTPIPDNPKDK
# Streptococcus = assay: Group A Streptococcus viability loss, dose response, counter-screen for streptokinase expression inhibitor project, luminescence, BacTiterGlo (AID 1915); type: functional, organism-based;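 also: potency for reduction of bacterial viability or growth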
# [5] = molecular target: Sphingosine 1-phosphate receptor 2 (Homo sapiens, UniProt O95136); assay: Dose Response Cell Based Assay for Antagonists of the S1P2 Receptor. [Related pubchem assays: 856, 736 ]; type: functional
# Sequence of Sphingosine 1-phosphate receptor 2 (O95136 whole entry): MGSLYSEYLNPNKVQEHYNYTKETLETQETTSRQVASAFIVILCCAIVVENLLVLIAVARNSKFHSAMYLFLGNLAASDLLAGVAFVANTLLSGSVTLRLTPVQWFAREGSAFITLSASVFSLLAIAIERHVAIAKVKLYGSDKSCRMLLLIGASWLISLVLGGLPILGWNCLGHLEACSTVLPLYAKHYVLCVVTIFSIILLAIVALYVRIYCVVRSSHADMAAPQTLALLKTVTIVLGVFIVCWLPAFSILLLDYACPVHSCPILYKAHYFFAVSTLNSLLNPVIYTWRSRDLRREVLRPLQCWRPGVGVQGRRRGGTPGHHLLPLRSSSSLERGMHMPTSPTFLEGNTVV
# [6] = tested on: Streptococcus sp. 'group A'; assay: growth inhibition of control SK(-) GAS strain, dose response, counter-screen for streptokinase expression inhibitor project, luminescence, kanamycin, BacTiterGlo, confirmation (AID 1900); type: functional, organism-based
# [7] = Artemis endonuclease inhibitor potency, dose response, biochemical, fluorescence intensity (AID 720701); type: functional;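 also: Artemis endonuclease enzyme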
# Vero = assay: host cell cytotoxicity of antiviral hits, dose response, cytotoxicity control for West Nile virus antiviral project, secondary assay (AID 1650); type: functional; conditions: Chlorocebus sabaeus
# [8] = molecular target: T2, Histone-lysine N-methyltransferase NSD2 (Homo sapiens, UniProt O96028); type: biochemical
# T2 sequence (O96028 whole entry): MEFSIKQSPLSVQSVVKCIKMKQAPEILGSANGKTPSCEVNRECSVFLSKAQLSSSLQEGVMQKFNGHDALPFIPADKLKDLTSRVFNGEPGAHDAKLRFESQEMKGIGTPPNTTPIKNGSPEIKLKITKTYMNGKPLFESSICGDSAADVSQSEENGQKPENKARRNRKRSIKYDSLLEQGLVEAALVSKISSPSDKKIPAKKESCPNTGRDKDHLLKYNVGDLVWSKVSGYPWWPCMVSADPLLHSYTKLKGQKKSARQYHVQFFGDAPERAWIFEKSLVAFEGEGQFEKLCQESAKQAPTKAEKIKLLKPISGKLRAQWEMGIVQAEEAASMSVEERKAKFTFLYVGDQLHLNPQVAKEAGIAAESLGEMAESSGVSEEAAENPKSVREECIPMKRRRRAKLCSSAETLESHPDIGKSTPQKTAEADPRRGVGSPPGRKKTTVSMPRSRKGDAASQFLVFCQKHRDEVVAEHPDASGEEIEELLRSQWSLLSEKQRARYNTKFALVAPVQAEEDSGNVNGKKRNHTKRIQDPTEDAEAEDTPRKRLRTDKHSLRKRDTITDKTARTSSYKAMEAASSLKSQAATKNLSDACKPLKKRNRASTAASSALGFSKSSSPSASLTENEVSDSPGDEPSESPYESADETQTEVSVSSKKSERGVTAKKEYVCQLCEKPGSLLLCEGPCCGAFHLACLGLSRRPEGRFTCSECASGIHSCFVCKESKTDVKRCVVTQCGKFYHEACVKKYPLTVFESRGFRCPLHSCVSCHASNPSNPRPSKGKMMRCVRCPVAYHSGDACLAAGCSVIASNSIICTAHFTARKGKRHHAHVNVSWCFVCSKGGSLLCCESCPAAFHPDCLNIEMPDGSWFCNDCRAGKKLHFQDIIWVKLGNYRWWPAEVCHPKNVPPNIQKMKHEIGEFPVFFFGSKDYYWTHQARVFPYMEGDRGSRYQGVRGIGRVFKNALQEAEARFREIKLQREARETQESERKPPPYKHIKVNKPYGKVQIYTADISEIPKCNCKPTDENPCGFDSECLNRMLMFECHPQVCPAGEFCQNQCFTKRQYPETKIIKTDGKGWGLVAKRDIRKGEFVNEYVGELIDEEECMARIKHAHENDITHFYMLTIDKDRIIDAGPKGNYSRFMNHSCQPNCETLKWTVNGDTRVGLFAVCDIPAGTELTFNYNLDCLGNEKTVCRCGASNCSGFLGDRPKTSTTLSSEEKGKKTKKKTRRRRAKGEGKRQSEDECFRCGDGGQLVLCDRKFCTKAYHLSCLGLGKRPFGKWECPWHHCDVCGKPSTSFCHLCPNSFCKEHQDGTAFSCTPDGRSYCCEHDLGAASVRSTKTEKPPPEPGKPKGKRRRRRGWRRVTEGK
# [9] = molecular target: T3, Apoptotic protease-activating factor 1 (Homo sapiens, UniProt O14727); type: functional
# T3 sequence (O14727 whole entry): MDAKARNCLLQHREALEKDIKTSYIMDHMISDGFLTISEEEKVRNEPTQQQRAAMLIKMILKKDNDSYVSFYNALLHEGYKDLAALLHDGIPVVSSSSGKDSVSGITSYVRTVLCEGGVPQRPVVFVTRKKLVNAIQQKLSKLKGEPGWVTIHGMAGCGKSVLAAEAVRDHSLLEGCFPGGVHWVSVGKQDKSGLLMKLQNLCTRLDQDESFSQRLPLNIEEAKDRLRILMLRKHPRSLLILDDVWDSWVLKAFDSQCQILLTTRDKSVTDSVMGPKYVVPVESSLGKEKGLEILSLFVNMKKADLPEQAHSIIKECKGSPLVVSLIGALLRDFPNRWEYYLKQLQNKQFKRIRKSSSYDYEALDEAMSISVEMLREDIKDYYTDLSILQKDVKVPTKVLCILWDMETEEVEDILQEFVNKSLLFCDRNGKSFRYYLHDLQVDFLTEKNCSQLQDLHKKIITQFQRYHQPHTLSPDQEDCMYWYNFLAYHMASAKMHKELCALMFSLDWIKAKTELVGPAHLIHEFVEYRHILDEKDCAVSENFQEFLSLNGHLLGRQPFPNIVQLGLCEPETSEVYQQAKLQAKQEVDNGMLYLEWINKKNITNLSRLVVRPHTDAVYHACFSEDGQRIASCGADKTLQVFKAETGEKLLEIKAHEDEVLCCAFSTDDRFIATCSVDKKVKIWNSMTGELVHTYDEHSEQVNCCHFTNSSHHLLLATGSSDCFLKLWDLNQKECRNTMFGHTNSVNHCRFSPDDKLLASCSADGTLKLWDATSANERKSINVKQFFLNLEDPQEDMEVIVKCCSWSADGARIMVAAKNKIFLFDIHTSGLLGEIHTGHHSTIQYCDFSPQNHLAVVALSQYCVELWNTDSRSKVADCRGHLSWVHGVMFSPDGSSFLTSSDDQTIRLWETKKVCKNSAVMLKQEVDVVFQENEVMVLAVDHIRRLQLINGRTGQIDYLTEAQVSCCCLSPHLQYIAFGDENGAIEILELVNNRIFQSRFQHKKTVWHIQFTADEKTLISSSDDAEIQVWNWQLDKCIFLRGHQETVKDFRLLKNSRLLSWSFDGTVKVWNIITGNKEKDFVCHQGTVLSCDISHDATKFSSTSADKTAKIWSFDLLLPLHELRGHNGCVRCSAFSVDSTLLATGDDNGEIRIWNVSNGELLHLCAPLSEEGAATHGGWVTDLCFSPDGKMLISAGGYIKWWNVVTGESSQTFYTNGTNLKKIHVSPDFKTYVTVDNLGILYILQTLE
# [10] = molecular target: T4, Dual specificity protein phosphatase 6 (Rattus norvegicus, UniProt Q64346); assay: MKP-3 phosphatase inhibitors, primary screen, biochemical, rat enzyme, in vitro (AID 425)
# T4 sequence (Q64346 whole entry): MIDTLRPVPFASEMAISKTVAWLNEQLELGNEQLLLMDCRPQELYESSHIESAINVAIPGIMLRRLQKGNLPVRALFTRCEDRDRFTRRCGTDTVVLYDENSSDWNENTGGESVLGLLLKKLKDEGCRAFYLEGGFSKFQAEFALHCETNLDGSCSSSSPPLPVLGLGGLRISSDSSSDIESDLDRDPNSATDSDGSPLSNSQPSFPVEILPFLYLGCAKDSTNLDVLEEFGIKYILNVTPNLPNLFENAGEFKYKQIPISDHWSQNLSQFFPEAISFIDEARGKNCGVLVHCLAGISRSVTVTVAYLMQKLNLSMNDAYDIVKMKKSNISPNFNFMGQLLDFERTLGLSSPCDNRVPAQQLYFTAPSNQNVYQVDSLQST
# [11] = molecular target: T5, RNA-editing ligase 1, mitochondrial (Trypanosoma brucei brucei, UniProt P86926); assay: TbREL1 ligase inhibitors, dose response, biochemical, fluorescence, Trypanosoma brucei (AID 1117295); type: functional
# T5 sequence (P86926 whole entry): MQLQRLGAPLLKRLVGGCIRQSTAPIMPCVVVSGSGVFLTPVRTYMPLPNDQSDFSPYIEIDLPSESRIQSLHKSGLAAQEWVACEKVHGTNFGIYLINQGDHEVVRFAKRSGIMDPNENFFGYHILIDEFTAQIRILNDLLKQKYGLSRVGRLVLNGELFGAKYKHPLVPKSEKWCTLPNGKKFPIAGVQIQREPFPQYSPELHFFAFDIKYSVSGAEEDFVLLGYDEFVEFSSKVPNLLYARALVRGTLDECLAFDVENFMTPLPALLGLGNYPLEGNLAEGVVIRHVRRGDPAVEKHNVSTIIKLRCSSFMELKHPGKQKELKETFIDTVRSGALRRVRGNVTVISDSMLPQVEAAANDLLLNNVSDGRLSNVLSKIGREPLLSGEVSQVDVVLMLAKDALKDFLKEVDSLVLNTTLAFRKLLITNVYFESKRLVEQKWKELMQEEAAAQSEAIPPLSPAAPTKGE
# Estrogen receptor = molecular target: T6, Estrogen receptor (Homo sapiens, UniProt P03372);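 also: potency for inhibiting coactivator peptide recruitment to the receptor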
# T6 sequence (P03372 whole entry): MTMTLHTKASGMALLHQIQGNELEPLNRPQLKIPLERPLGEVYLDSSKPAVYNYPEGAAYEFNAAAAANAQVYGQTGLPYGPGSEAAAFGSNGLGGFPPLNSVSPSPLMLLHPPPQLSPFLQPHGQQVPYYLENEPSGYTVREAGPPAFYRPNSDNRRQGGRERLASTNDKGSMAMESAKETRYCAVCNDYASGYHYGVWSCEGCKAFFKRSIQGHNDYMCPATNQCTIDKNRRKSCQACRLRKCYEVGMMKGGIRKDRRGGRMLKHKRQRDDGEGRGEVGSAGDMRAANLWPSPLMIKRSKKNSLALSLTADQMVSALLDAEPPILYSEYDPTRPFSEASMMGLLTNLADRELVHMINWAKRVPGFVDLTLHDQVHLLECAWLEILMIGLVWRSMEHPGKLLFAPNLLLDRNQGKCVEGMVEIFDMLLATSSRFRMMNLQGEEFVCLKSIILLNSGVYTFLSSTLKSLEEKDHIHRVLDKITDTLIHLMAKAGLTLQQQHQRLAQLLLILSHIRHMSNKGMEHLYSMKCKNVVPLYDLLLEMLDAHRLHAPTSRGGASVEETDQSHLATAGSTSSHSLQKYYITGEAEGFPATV
# Estrogen receptor beta [12] = molecular target: T7, Estrogen receptor beta (Homo sapiens, UniProt Q92731); assay: ERβ–SRC-3 coactivator interaction inhibitors, confirmation, orthogonal assay, biochemical, ELISA, streptavidin-HRP readout (AID 1060)
# T7 sequence (Q92731 whole entry): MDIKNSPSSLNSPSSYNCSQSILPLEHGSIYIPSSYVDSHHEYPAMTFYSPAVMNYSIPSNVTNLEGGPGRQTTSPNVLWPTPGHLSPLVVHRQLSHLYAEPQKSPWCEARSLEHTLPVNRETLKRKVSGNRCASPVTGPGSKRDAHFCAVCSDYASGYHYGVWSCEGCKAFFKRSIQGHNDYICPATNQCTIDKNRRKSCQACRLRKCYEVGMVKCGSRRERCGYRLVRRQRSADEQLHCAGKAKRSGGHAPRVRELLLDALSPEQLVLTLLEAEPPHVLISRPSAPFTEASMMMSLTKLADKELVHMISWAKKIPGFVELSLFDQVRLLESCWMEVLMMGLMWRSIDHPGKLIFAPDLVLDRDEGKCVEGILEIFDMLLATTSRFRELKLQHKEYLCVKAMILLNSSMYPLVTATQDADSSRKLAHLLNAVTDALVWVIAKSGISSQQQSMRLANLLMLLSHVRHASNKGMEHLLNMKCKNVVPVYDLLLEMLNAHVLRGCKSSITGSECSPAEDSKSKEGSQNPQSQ
# Estrogen receptor beta [13] = molecular target: T7, Estrogen receptor beta
smiles,measurement,setting,value
COC(=O)c1ccc(COc2ccccc2/C=C(\C#N)C(=O)Nc2c(C)cc(C)cc2C)cc1,CC50,[1],15.9 µM (active)
same,EC50,[2],5.33 µM (active)
same,EC50,[3],5.83 µM (active)
same,AC50,[4],1.28 µM (active)
Cc1cc(/C=N/n2cnnc2)c(C)n1-c1ccc(OCc2ccc(Cl)cc2)cc1,AC50,INS1,1.15 µM (active)
same,EC50,Streptokinase A,12.9 µM (active)
same,EC50,Streptococcus,12.3 µM (active)
same,IC50,[5],49.3 µM (not active)
same,EC50,[6],5.41 µM (active)
same,IC50,[7],15.7 µM (active)
same,CC50,Vero,1.02 µM (active)
CCCCNC(=O)c1c(N)n(CCCOC)c2nc3ccccc3nc12,AC50,[8],8.05 µM (active)
same,IC50,[9],27.7 µM (active)
same,IC50,[10],> 100 µM (not active)
same,IC50,[11],17.9 µM (inactive)
CCOC(=O)C1=c2/c(=C/c3ccccc3OC)c(N)c(C#N)n2C(=O)C(c2ccccc2OC)S1 (stereo not drawn),IC50,Estrogen receptor,9.8 µM (active)
same,IC50,Estrogen receptor beta [12],78.5 µM (not active)
same,IC50,Estrogen receptor beta [13],> 50 µM (not active)
